Results published in EP4079295A1, “COMPOSITION HAVING IMPROVED SOLUBILITY AND BIOAVAILABILITY OF OLAPARIB” (Samyang Holdings Corporation, priority 2019, dated 2021).
≈ marks a conversion by molar mass, not a printed value.

Tests used:
[1] = cited from earlier work
[2] = Test Example 1: drug solubility, simple mixture versus solid dispersion; format: physicochemical; conditions: thermodynamic from solid, 20 ml, amount corresponding to 400 mg of Olaparib, 37°C, 100 rpm
Description: To 20 ml of distilled water and pH 1.2 buffer, each of the solid dispersions of Example 1 and 4 and the simple mixtures of Comparative Examples 2 and 3 corresponding to 400 mg of Olaparib was added, and stirred in an incubator at 37°C with 100 rpm for 1 hour. The test solution was filtered with RC syringe filter (0.2 µm) and 1 mL of the filtered solution was taken and diluted with 2 mL of the following diluent solution, and then the amount was measured according to Olaparib amount analysis method.
• 1) Diluent solution preparation Diluent solution - water (DW): acetonitrile (CAN)=1:1 • 2) Operation • Detector: UV absorption spectrometer 254 nm • Column: Nova-Pak C18 Column, 60Å, 4 µm, 3.9 mm × 150 mm • Flow rate: 1.2 ml/min • Injection amount: 5 µl • Column temperature: 35°C • Run time: 16 min • Mobile phase [Table 4]

## O=C(c1cc(Cc2n[nH]c(=O)c3ccccc23)ccc1F)N1CCN(C(=O)C2CC2)CC1 [Olaparib]
[1]
  water solubility: 100 to 130 µg/mL
[1]; weak acidic
  pKa: 12.07
[2]; simulated gastric fluid, pH 1.2 buffer
  solubility at 1 h: 100 µg/mL (≈ 230 µM)
[2]; water (distilled water)
  solubility at 1 h: 100 µg/mL (≈ 230 µM)
